Results taken from patent publication US20230114728A1 (Venatorx Pharmaceuticals, Inc., priority 2019, published 2023).
Values after ≈ are worked out from the molar mass of the structure shown.

Columns and labels:
Assay in all cases: Broth microdilution MIC in CAMHB
Type in all cases: cell-based
A. baumannii ATCC 19606 = details: Acinetobacter baumannii, ATCC19606; MHB; read-out: Minimum Inhibitory Concentration, A. baumannii ATCC 19606
Outline: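 Colonies from cation-adjusted Mueller Hinton agar are grown in broth (3-5 h, 37° C), adjusted by OD600, and added at 2-8×10^5 CFU/mL to 2-fold compound dilutions. After 16-20 h at 37° C, the lowest concentration without growth is taken as MIC.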

E. coli 901C = details: Escherichia coli; E. coli 901C (hyper-permeable); MHB; read-out: Minimum Inhibitory Concentration, E. coli 901C
Outline: (§1)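 Per CLSI broth microdilution, colonies were grown 3-5 h at 37° C in cation-adjusted Mueller Hinton broth, then diluted to a starting inoculum of 2-8×10^5 CFU/mL against 2-fold serial compound dilutions. Plates were incubated 16-20 h at 37° C, and MIC was read visually as the lowest concentration with no growth.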

E. coli AG100A = details: Escherichia coli, read-out: Minimum Inhibitory Concentration, E. coli AG100A
Outline: as §1

E. coli AG100 = details: Escherichia coli; E. coli AG100 (wild-type parent); MHB; read-out: Minimum Inhibitory Concentration, E. coli AG100
Outline: as §1

E. coli ATCC 25922 = details: Escherichia coli, ATCC25922; E. coli ATCC 25922; MHB; read-out: Minimum Inhibitory Concentration, E. coli 25922
Outline: as §1

E. coli D22 = details: Escherichia coli; E. coli D22 (hyper-permeable); MHB; read-out: Minimum Inhibitory Concentration, E. coli D22
Outline: as §1

[1] = system: K. pneumoniae 848844 producing SHV-11 and KPC-2; details: Klebsiella pneumoniae, read-out: Minimum Inhibitory Concentration, K. pneumoniae 848844
Outline: as §1

[2] = system: K. pneumoniae SI-117 producing VIM-1; details: Klebsiella pneumoniae, read-out: Minimum Inhibitory Concentration, K. pneumoniae SI-117
Outline: as §1

[3] = system: K. pneumoniae UMM producing SHV-5 and KPC-2; details: Klebsiella pneumoniae, read-out: Minimum Inhibitory Concentration, K. pneumoniae UMM
Outline: as §1

[4] = system: P. aeruginosa (ΔmexAB-oprM); details: Pseudomonas aeruginosa, read-out: Minimum Inhibitory Concentration, P. aeruginosa ΔmexAB-OprM
Outline: as §1

P. aeruginosa ATCC 27853 = details: Pseudomonas aeruginosa, ATCC27853; MHB; read-out: Minimum Inhibitory Concentration, P. aeruginosa ATCC 27853
Outline: as §1

P. aeruginosa ATCC 35151 = details: Pseudomonas aeruginosa, ATCC35151; MHB; hyper-permeable strain; read-out: Minimum Inhibitory Concentration, P. aeruginosa ATCC 35151
Outline: as §1

Structure (SMILES)	MIC (A. baumannii ATCC 19606) [µg/mL]	MIC (E. coli 901C) [µg/mL]	MIC (E. coli AG100A) [µg/mL]	MIC (E. coli AG100) [µg/mL]	MIC (E. coli ATCC 25922) [µg/mL]	MIC (E. coli D22) [µg/mL]	MIC [1] [µg/mL]	MIC [2] [µg/mL]	MIC [3] [µg/mL]	MIC [4] [µg/mL]	MIC (P. aeruginosa ATCC 27853) [µg/mL]	MIC (P. aeruginosa ATCC 35151) [µg/mL]
CCN1CCN(C(=O)NC(C(=O)N[C@H]2Cc3cccc(C(=O)O)c3OB2O)c2cc(O)cc(O)c2)C(=O)C1=O (mixture of isomers) [Example 79, (3R)-3-(2-(3,5-dihydroxyphenyl)-2-(4-ethyl-2,3-dioxopiperazine-1-carboxamido)acetamido)-2-hydroxy-3,4-dihydro-2H-benzo[e][1,2]oxaborinine-8-carboxylic acid]	> 128	< 0.25	2 to 4	8 to 16	8 to 16	2 to 4	32 to 64	32 to 64	8 to 16	2 to 4	> 128	0.5 to 1
CCN1CCN(C(=O)N[C@H](C(=O)N[C@H]2Cc3cccc(C(=O)O)c3OB2O)c2cc(O)cc(O)c2)C(=O)C1=O (single isomer, unassigned) [Example 81]	> 128	0.5 to 1 (≈ 0.925 to 1.85 µM)	8 to 16 (≈ 14.8 to 29.6 µM)	32 to 64 (≈ 59.2 to 118 µM)	32 to 64 (≈ 59.2 to 118 µM)	8 to 16 (≈ 14.8 to 29.6 µM)	> 128	> 128	> 128	32 to 64 (≈ 59.2 to 118 µM)	> 128	2 to 4 (≈ 3.7 to 7.4 µM)
CCN1CCN(C(=O)N[C@@H](C(=O)N[C@H]2Cc3cccc(C(=O)O)c3OB2O)c2cc(O)cc(O)c2)C(=O)C1=O (single isomer, unassigned) [Example 82]	32 to 64 (≈ 59.2 to 118 µM)	< 0.25	2 to 4 (≈ 3.7 to 7.4 µM)	8 to 16 (≈ 14.8 to 29.6 µM)	32 to 64 (≈ 59.2 to 118 µM)	2 to 4 (≈ 3.7 to 7.4 µM)	> 128	32 to 64 (≈ 59.2 to 118 µM)	32 to 64 (≈ 59.2 to 118 µM)	32 to 64 (≈ 59.2 to 118 µM)	> 128	< 0.25
NCCN1CCN(C(=O)N[C@H](C(=O)N[C@H]2Cc3cccc(C(=O)O)c3OB2O)c2ccc(C(=O)O)cc2)C(=O)C1=O (single isomer, unassigned) [Example 83]	> 128	< 0.25	8 to 16 (≈ 14.1 to 28.2 µM)	32 to 64 (≈ 56.4 to 113 µM)	32 to 64 (≈ 56.4 to 113 µM)	2 to 4 (≈ 3.53 to 7.05 µM)	> 128	> 128	32 to 64 (≈ 56.4 to 113 µM)	8 to 16 (≈ 14.1 to 28.2 µM)	32 to 64 (≈ 56.4 to 113 µM)	0.5 to 1 (≈ 0.881 to 1.76 µM)
NCCN1CCN(C(=O)N[C@@H](C(=O)N[C@H]2Cc3cccc(C(=O)O)c3OB2O)c2ccc(C(=O)O)cc2)C(=O)C1=O (single isomer, unassigned) [Example 84]	> 128	0.5 to 1 (≈ 0.881 to 1.76 µM)	2 to 4 (≈ 3.53 to 7.05 µM)	8 to 16 (≈ 14.1 to 28.2 µM)	8 to 16 (≈ 14.1 to 28.2 µM)	2 to 4 (≈ 3.53 to 7.05 µM)	32 to 64 (≈ 56.4 to 113 µM)	> 128	8 to 16 (≈ 14.1 to 28.2 µM)	8 to 16 (≈ 14.1 to 28.2 µM)	32 to 64 (≈ 56.4 to 113 µM)	0.5 to 1 (≈ 0.881 to 1.76 µM)
NCCN1CCN(C(=O)N[C@H](C(=O)N[C@H]2Cc3cccc(C(=O)O)c3OB2O)c2ccc(O)cc2Cl)C(=O)C1=O (single isomer, unassigned) [Example 85]	> 128	8 to 16 (≈ 13.9 to 27.9 µM)	32 to 64 (≈ 55.8 to 112 µM)	> 128	> 128	32 to 64 (≈ 55.8 to 112 µM)	> 128	> 128	> 128	32 to 64 (≈ 55.8 to 112 µM)	> 128	2 to 4 (≈ 3.49 to 6.97 µM)
O=C(O)c1ccc(C(NC(=O)N2CCN(CCNC(=O)c3ccc(O)c(O)c3Cl)C(=O)C2=O)C(=O)N[C@H]2Cc3ccc(F)c(C(=O)O)c3OB2O)cc1F (stereo partly drawn) [Example 11, (3R)-3-(2-(4-carboxy-3-fluorophenyl)-2-(4-(2-(2-chloro-3,4-dihydroxybenzamido)ethyl)-2,3-dioxopiperazine-1-carboxamido)acetamido)-7-fluoro-2-hydroxy-3,4-dihydro-2H-benzo[e][1,2]oxaborinine-8-carboxylic acid]	–	0.5 to 1 (≈ 0.646 to 1.29 µM)	2 to 4 (≈ 2.58 to 5.17 µM)	32 to 64 (≈ 41.4 to 82.7 µM)	32 to 64 (≈ 41.4 to 82.7 µM)	8 to 16 (≈ 10.3 to 20.7 µM)	> 128	32 to 64 (≈ 41.4 to 82.7 µM)	2 to 4 (≈ 2.58 to 5.17 µM)	–	–	–
O=C(NC(C(=O)N[C@H]1Cc2ccc(F)c(C(=O)O)c2OB1O)c1ncc(O)cc1F)c1ccnc(F)c1 (stereo partly drawn) [Example 53, (3R)-7-fluoro-3-(2-(3-fluoro-5-hydroxypyridin-2-yl)-2-(2-fluoroisonicotinamido)acetamido)-2-hydroxy-3,4-dihydro-2H-benzo[e][1,2]oxaborinine-8-carboxylic acid]	–	8 to 16 (≈ 15.5 to 31 µM)	> 128	> 128	> 128	> 128	> 128	> 128	> 128	–	–	–
CCN1CCN(C(=O)NC(C(=O)N[C@H]2Cc3ccc(S)c(C(=O)O)c3OB2O)c2csc(N)n2)C(=O)C1=O (stereo partly drawn) [Example 54, (3R)-3-(2-(2-aminothiazol-4-yl)-2-(4-ethyl-2,3-dioxopiperazine-1-carboxamido)acetamido)-2-hydroxy-7-mercapto-3,4-dihydro-2H-benzo[e][1,2]oxaborinine-8-carboxylic acid]	> 128	0.5 to 1 (≈ 0.889 to 1.78 µM)	> 128	> 128	> 128	32 to 64 (≈ 56.9 to 114 µM)	> 128	> 128	> 128	32 to 64 (≈ 56.9 to 114 µM)	–	8 to 16 (≈ 14.2 to 28.4 µM)
CCN1CCN(C(=O)NC(C(=O)N[C@H]2Cc3ccc(SCc4ccc(O)cc4)c(C(=O)O)c3OB2O)c2csc(N)n2)C(=O)C1=O (stereo partly drawn) [Example 55, (3R)-3-(2-(2-aminothiazol-4-yl)-2-(4-ethyl-2,3-dioxopiperazine-1-carboxamido)acetamido)-2-hydroxy-7-((4-hydroxybenzyl)thio)-3,4-dihydro-2H-benzo[e][1,2]oxaborinine-8-carboxylic acid]	> 128	0.5 to 1 (≈ 0.748 to 1.5 µM)	32 to 64 (≈ 47.9 to 95.7 µM)	> 128	32 to 64 (≈ 47.9 to 95.7 µM)	8 to 16 (≈ 12 to 23.9 µM)	> 128	> 128	> 128	32 to 64 (≈ 47.9 to 95.7 µM)	–	0.5 to 1 (≈ 0.748 to 1.5 µM)
CCN1CCN(C(=O)NC(C(=O)N[C@H]2Cc3ccc(C=O)c(C(=O)O)c3OB2O)c2csc(N)n2)C(=O)C1=O (stereo partly drawn) [Example 57, (3R)-3-(2-(2-aminothiazol-4-yl)-2-(4-ethyl-2,3-dioxopiperazine-1-carboxamido)acetamido)-7-formyl-2-hydroxy-3,4-dihydro-2H-benzo[e][1,2]oxaborinine-8-carboxylic acid]	> 128	2 to 4 (≈ 3.58 to 7.16 µM)	32 to 64 (≈ 57.3 to 115 µM)	> 128	32 to 64 (≈ 57.3 to 115 µM)	8 to 16 (≈ 14.3 to 28.7 µM)	32 to 64 (≈ 57.3 to 115 µM)	> 128	32 to 64 (≈ 57.3 to 115 µM)	32 to 64 (≈ 57.3 to 115 µM)	–	2 to 4 (≈ 3.58 to 7.16 µM)
CCN1CCN(C(=O)NC(C(=O)N[C@H]2Cc3ccc(CO)c(C(=O)O)c3OB2O)c2csc(N)n2)C(O)C1=O (stereo partly drawn) [Example 58, (3R)-3-(2-(2-aminothiazol-4-yl)-2-(4-ethyl-2-hydroxy-3-oxopiperazine-1-carboxamido)acetamido)-2-hydroxy-7-(hydroxymethyl)-3,4-dihydro-2H-benzo[el][1,2]oxaborinine-8-carboxylic acid]	> 128	32 to 64 (≈ 56.9 to 114 µM)	> 128	> 128	> 128	> 128	> 128	> 128	> 128	> 128	–	8 to 16 (≈ 14.2 to 28.5 µM)
CCN1CCN(C(=O)NC(C(=O)N[C@H]2Cc3ccc(O[C@@H]4CN[C@H](C(=O)N(C)C)C4)c(C(=O)O)c3OB2O)c2ccccc2)C(=O)C1=O (stereo partly drawn) [Example 59, (3R)-7-(((3S,5S)-5-(dimethylcarbamoyl)pyrrolidin-3-yl)oxy)-3-(2-(4-ethyl-2,3-dioxopiperazine-1-carboxamido)-2-phenylacetamido)-2-hydroxy-3,4-dihydro-2H-benzo[e][1,2]oxaborinine-8-carboxylic acid]	> 128	2 to 4 (≈ 3.01 to 6.02 µM)	32 to 64 (≈ 48.2 to 96.3 µM)	> 128	> 128	32 to 64 (≈ 48.2 to 96.3 µM)	> 128	> 128	> 128	8 to 16 (≈ 12 to 24.1 µM)	–	0.5 to 1 (≈ 0.752 to 1.5 µM)
CCN1CCN(C(=O)NC(C(=O)N[C@H]2Cc3ccc(OCCN)c(C(=O)O)c3OB2O)c2ccccc2)C(=O)C1=O (stereo partly drawn) [Example 60, (3R)-7-(2-aminoethoxy)-3-(2-(4-ethyl-2,3-dioxopiperazine-1-carboxamido)-2-phenylacetamido)-2-hydroxy-3,4-dihydro-2H-benzo[e][1,2]oxaborinine-8-carboxylic acid]	> 128	8 to 16 (≈ 14.1 to 28.2 µM)	32 to 64 (≈ 56.4 to 113 µM)	> 128	> 128	32 to 64 (≈ 56.4 to 113 µM)	> 128	> 128	> 128	32 to 64 (≈ 56.4 to 113 µM)	–	2 to 4 (≈ 3.53 to 7.05 µM)
